{
  "source": "patent US8163774B2",
  "about": "“Amide-substituted 8-N-benzimidazoles, method for the production thereof, and use of the same as medicaments” (Sanofi-Aventis, priority 2005, dated 2012)",
  "target": "T1, DPP-IV from porcine kidneys (Sus scrofa, UniProt P22411)",
  "T1 construct": "DPP-IV from porcine kidneys (Sigma, Munich); purchased Sigma, Munich; host or cells: porcine kidney tissue",
  "T1 sequence (P22411 whole entry)": "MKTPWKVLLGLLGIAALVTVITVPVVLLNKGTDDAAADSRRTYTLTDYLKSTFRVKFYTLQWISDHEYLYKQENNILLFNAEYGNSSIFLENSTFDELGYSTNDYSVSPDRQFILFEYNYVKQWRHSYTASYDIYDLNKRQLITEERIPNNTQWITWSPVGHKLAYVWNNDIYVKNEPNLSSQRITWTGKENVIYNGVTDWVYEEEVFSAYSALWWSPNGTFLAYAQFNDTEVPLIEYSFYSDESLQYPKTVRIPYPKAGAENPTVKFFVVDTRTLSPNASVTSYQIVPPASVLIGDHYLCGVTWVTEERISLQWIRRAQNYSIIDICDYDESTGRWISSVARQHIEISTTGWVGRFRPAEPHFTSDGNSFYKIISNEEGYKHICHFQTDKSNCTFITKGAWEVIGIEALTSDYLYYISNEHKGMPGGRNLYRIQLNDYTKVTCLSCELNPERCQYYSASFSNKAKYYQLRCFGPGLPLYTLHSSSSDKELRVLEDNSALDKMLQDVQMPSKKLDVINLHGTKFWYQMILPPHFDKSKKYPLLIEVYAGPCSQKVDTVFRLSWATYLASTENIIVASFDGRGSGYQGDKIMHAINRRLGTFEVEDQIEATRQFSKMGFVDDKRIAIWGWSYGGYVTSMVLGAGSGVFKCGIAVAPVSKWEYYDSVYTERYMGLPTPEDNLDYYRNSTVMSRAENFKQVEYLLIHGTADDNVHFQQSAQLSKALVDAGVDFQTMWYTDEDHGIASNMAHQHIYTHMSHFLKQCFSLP",
  "assay": "Measurement of the DPP-IV activity (fluorimetric, H-Ala-Pro-AFC substrate)",
  "assay_type": "biochemical",
  "details": "DPP-IV 1 mU/ml, substrate H-Ala-Pro-AFC 15 μM, Tris/HCl pH 7.4, room temperature",
  "experimental": "Measurement of the DPP-IV activity:\nDPP-IV from porcine kidneys (Sigma, Munich)\nH-Ala-Pro-AFC (Bachem, Weil am Rhein)\nDPP-IV (1 mU/ml, end concentration)\nH-Ala-Pro-AFC (15 μm end concentration)\nin Tris/HCl (40 mM, pH 7.4), total volume 0.2 ml\nThe reaction was performed at room temperature for different periods (typically 10 minutes) and stopped at the end of the reaction by adding 20 μl of ZnCl2 (1 M). The conversion of H-AIa-Pro-AFC was determined fluorimetrically by measuring the emission at 535 nm on excitation at 405 nm. In the case of addition of inhibitors, the buffer volume added was adjusted such that a total volume of the test mixture of 200 μl was maintained.\nIC50 values for inhibitors were determined by varying the inhibitor concentrations at the given substrate concentration of 15 μM. Ki and Km values were determined by corresponding variation of substrate and inhibitor concentration as described (Dixon, M. and Webb, E. C. (1979) Enzymes, third edition, pp. 47-206, Academic Press). The values for Km, IC50 and Ki were calculated using a commercially available software package (Leatherbarrow, R. J. (1992) GraFit Version 3.0, Erithacus Software Ltd. Staines, U.K.).",
  "data": [
    {"smiles": "N[C@@H]1CCCN(c2nc3cc(C(=O)NCc4ccc(Cl)cc4)ccc3n2Cc2ccc(F)cc2)C1", "note": "[Example 6]", "values": [
      {"measurement": "IC50", "value": 4.3, "unit": "µM"}
    ]},
    {"smiles": "N[C@@H]1CCCN(c2nc3ccc(C(=O)NCc4cccc(C(F)(F)F)c4)cc3n2Cc2ccc(F)cc2)C1", "note": "[Example 2]", "values": [
      {"measurement": "IC50", "value": 1, "unit": "µM"}
    ]},
    {"smiles": "CC(C)=CCn1c(N2CCC[C@@H](N)C2)nc2ccc(C(=O)Nc3ccc(F)cc3)cc21", "note": "[Example 11]", "values": [
      {"measurement": "IC50", "value": 1.8, "unit": "µM"}
    ]},
    {"smiles": "N[C@@H]1CCCN(c2nc3ccc(C(=O)NCc4cccnc4)cc3n2Cc2ccc(F)cc2)C1", "note": "[Example 5]", "values": [
      {"measurement": "IC50", "value": 2.5, "unit": "µM"}
    ]}
  ]
}
